Key:
3T3 = test: Acute oral toxicity dose LD50 by 3T3 Neutral Red Uptake (NRU) assay (OECD Guidance Document No 129); format: cell-based; settings: LD50 calculated from 3T3 NRU assay (OECD GD 129)
Procedure: The acute oral toxicity dose LD50 was measured by 3T3 Neutral Red Uptake (NRU) assay (OECD Guidance Document No 129). Specifically, LD50 may be calculated by the following method.

[1] = Critical micelle concentration from surface tension at each concentration (Method 5, Du Nouy ring, force tensiometer); format: physicochemical; settings: aqueous solutions, measurement repeated three times
Procedure: A solution comprising the compound comprising quaternary ammonium structure is prepared, and the surface tension of the solution is measured at each concentration. A calibration curve of the surface tension at each concentration is obtained, and the critical micelle concentration of the compound comprising the quaternary ammonium structure is obtained therefrom.
In this case, the surface tension at each concentration may be measured using a surface tension meter (force tensiometer) and a Du Nouy ring method.
In addition, the solution may use a solvent such as distilled water, but the solvent is not limited thereto.
The critical micelle concentrations of Monomers 2 and 3 and Comparative Monomer 2 were measured by Method 5, and are shown in the following Table 4 and FIGS. 4 to 6. More specifically, aqueous solutions (30 mL) were prepared for each concentration of Monomers 2 and 3 and Comparative Monomer 2, and the surface tension was measured using the Du Nouyring method of a force tensiometer. Each measurement was repeated three times. The surface tension was measured by preparing diluted solutions until the surface tension was similar to deionized water. The critical micelle concentration (CMC) was confirmed by confirming through the change in surface tension with concentration that each aqueous solution formed a micelle.

Structure (SMILES)	Acute oral toxicity dose (mg/Kg) LD50 (3T3)	Critical micelle concentration (wt %) [1]
C=C(C)C(=O)OCC[N+](CCCC)(CCCCCCCC)CCCCCCCCCC (centres unmarked) [Monomer 7]	998 mg/kg	–
C=C(C)C(=O)OCC[N+](CCCC)(CCCCCCCCCC)CCCCCCCCCC [Monomer 8]	869 mg/kg	–
C=CC(=O)OCC[N+](CCCC)(CCCC)CCCCCCCCCCCC [Monomer 3]	843 mg/kg	0.25 ± 0.05 wt %
C=CC(=O)OCC[N+](CCCC)(CCCC)CCCCCCCCCC [Monomer 2]	–	1.5 ± 0.3 wt %
C=CC(=O)OCC[N+](CCCC)(CCCC)CCCCCC [Comparative Monomer 1, reference compound]	2,355 mg/Kg	–
C=CC(=O)OCC[N+](CCCCCCCCCCCCCC)(CCCCCCCCCCCCCC)CCCCCCCCCCCCCC [Comparative Monomer 2, reference compound]	231 mg/kg	0.06 ± 0.01 wt %

From patent publication US20240108001A1, “Antibacterial Composition” (LG Chem, Ltd., priority 2021, published 2024)
